Source: publication PMC7895991, “Calculating metalation in cells reveals CobW acquires Co^II for vitamin B12 biosynthesis while related proteins prefer Zn^II” (Nature Communications, 2021)

Assays:
[1] = molecular target: T1, CobW (Rhodobacter capsulatus, UniProt D5AV10); experiment: Co(II) titration UV-vis at […] nm and gel filtration/ICP-MS; type: binding; details: 10 mM HEPES pH 7.0, 100 mM NaCl, 400 mM KCl, anaerobic, with or without Mg(II) 2.7 mM, indirect read-out, no nucleotide constant
T1 construct: full length, untagged (natural His-rich region), initiator Met cleaved; E. coli BL21(DE3) pLysS; six cysteines
T1 sequence (D5AV10 2-348): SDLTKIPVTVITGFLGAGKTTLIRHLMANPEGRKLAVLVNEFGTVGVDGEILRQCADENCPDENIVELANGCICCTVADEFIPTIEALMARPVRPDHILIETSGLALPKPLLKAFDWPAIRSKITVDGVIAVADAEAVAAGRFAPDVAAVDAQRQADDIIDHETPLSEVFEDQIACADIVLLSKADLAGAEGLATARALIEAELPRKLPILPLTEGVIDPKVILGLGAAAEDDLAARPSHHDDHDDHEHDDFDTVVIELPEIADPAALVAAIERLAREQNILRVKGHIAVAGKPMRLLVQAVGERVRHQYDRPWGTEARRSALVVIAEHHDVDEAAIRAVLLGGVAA

[2] = molecular target: T1, CobW; experiment: GTP hydrolysis by anion-exchange chromatography, […] nm; type: biochemical; details: 20 uM CobW, 200 uM GTP, 2.7 mM Mg(II), 18 uM Co(II), HEPES pH 7.0, anaerobic; slow turnover
[3] = molecular target: T1, CobW; experiment: Co(II) titration UV-vis, nucleotide-induced metal site at […] nm; type: binding; details: 10 mM HEPES pH 7.0, 100 mM NaCl, 400 mM KCl, anaerobic, indirect read-out, no nucleotide constant

Structure (SMILES): Nc1nc2c(ncn2[C@@H]2O[C@H](COP(=O)(O)OP(=O)(O)NP(=O)(O)O)[C@@H](O)[C@H]2O)c(=O)[nH]1 [GMPPNP]
- Co(II) titration UV-vis at 339 nm and gel filtration/ICP-MS [1]: binding of guanine nucleotides to CobW promotes tight coordination of two metal ions

Structure (SMILES): Nc1nc2c(ncn2[C@@H]2O[C@H](COP(=O)(O)OP(=O)(O)OP(=O)(O)O)[C@@H](O)[C@H]2O)c(=O)[nH]1 [GTP]
- GTP hydrolysis by anion-exchange chromatography, 254 nm [2]: CobW-catalysed GTP hydrolysis is sufficiently slow such that nucleotides remain predominantly unhydrolysed
- Co(II) titration UV-vis, nucleotide-induced metal site at 339 nm ([3]; Mg(II) 2.7 mM): binding of Mg^II and guanine nucleotides preassembles one distinct Co^II site in CobW

Structure (SMILES): Nc1nc2c(ncn2[C@@H]2O[C@H](COP(=O)(O)OP(=O)(O)OP(O)(O)=S)[C@@H](O)[C@H]2O)c(=O)[nH]1 [GTPγS]
- Co(II) titration UV-vis, nucleotide-induced metal site at 339 nm ([3]; with or without Mg(II) 2.7 mM): Equivalent experiments performed with GTP and an alternate stable analogue, GTPγS, generated indistinguishable spectra

Structure (SMILES): Nc1nc2c(ncn2[C@@H]2O[C@H](COP(=O)(O)OP(=O)(O)O)[C@@H](O)[C@H]2O)c(=O)[nH]1 [GDP]
- Co(II) titration UV-vis, nucleotide-induced metal site at 339 nm ([3]; Mg(II) 2.7 mM): Mg^IIGDP-CobW, despite displaying identical absorbance features indicating the persistence of the cysteine-rich tetrahedral site
